Source: patent US20230118688A1, “1H-PYRAZOLO[4,3-d]PYRIMIDINE COMPOUNDS AS TOLL-LIKE RECEPTOR 7 (TLR7) AGONISTS” (BRISTOL-MYERS SQUIBB COMPANY, priority 2020, published 2023)

Legend:
human TLR7 = target: T1, human TLR7 (Homo sapiens, UniProt Q9NYK1); assay: Human TLR7 agonist activity reporter assay (HEK-Blue TLR7 cells, SEAP reporter); type: cell-based; conditions: 18 h treatment, average where assay repeated, Table A1, read-out: hTLR7 Agonism EC50
T1 construct: host or cells: HEK-Blue TLR7 cells (engineered human embryonic kidney cells)
T1 sequence (Q9NYK1 27-1049): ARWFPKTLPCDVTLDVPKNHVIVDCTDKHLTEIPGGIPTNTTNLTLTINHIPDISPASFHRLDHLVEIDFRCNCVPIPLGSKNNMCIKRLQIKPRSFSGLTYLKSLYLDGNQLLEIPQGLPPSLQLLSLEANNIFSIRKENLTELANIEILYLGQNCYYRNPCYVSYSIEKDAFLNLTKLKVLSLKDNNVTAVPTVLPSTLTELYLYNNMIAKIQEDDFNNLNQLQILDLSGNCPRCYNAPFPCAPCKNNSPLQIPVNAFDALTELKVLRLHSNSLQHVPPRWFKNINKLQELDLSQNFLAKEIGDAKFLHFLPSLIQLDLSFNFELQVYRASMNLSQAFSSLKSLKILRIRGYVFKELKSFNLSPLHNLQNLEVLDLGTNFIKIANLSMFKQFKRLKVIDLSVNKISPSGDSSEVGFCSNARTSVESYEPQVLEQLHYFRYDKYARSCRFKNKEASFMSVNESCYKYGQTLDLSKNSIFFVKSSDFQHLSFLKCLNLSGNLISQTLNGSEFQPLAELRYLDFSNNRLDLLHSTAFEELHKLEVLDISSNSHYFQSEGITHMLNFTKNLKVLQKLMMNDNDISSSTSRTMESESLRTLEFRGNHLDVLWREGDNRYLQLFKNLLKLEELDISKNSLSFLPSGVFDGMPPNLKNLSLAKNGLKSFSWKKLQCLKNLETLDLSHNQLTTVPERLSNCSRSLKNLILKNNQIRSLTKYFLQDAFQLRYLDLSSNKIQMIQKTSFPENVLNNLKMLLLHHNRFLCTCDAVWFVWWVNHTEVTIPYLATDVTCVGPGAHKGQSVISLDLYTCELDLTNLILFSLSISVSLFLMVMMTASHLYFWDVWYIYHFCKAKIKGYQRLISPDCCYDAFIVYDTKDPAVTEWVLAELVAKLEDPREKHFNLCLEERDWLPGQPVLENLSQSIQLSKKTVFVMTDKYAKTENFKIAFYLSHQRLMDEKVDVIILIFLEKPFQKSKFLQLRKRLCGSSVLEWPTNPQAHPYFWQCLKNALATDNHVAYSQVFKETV
Method: This procedure describes a method for assaying human TLR7 (hTLR7) agonist activity of the compounds disclosed in this specification.
HEK-Blue™ TLR7 cells were added to each well of a 384-well tissue-culture plate (15,000 cells per well) and incubated 16-18 h at 37° C., 5% CO2. Compounds (100 nl) were dispensed into wells containing the HEK-Blue™ TLR cells and the treated cells were incubated at 37° C., 5% CO2. After 18 h treatment ten microliters of freshly-prepared Quanti-Blue™ reagent (Invivogen) was added to each well, incubated for 30 min (37° C., 5% CO2) and SEAP levels measured using an Envision plate reader (OD=620 nm). The half maximal effective concentration values (EC50; compound concentration which induced a response halfway between the assay baseline and maximum) were calculated.

CD69 = assay: Induction of CD69 in human whole blood; type: cell-based; conditions: 17 h, CD69 surface staining, 100% set to 1 uM resiquimod, average where assay repeated, Table A1, read-out: hWB CD69 EC50
Method: The induction of Type I interferon (IFN) MX-1 genes and the B-cell activation marker CD69 are downstream events that occur upon activation of the TLR7 pathway. The following is a human whole blood assay that measures their induction in response to a TLR7 agonist.
Heparinized human whole blood was harvested from human subjects and treated with test TLR7 agonist compounds at 1 mM. The blood was diluted with RPMI 1640 media and Echo was used to predot 10 nL per well giving a final concentration of 1 uM (10 nL in 10 uL of blood). After mixing on a shaker for 30 sec, the plates were covered and placed in a 37° C. chamber for o/n=17 hrs. Fixing/lysis buffer was prepared (5×->1× in H2O, warm at 37° C.; Cat #BD 558049) and kept the perm buffer (on ice) for later use.
For surface markers staining (CD69): prepared surface Abs: 0.045 ul hCD14-FITC (ThermoFisher Cat #MHCD1401)+0.6 ul hCD19-ef450 (ThermoFisher Cat #48-0198-42)+1.5 ul hCD69-PE (cat #BD555531)+0.855 ul FACS buffer. Added 3 ul/well, spin1000 rpm for 1 min and mixed on shaker for 30 sec, put on ice for 30 mins. Stop stimulation after 30 minutes with 70 uL of prewarmed 1× fix/lysis buffer and use Feliex mate to resuspend (15 times, change tips for each plate) and incubate at 37C for 10 minutes.
Centrifuge at 2000 rpm for 5 minutes aspirate with HCS plate washer, mix on shaker for 30 sec and then wash with 70 uL in dPBS and pelleted 2×s (2000 rpm for 5 min) and 50 ul wash in FACS buffer pelleted 1×s(2000 rpm for 5 min). Mix on shaker for 30 sec. For Intracellular markers staining (MX-1): Add 50 ul of BD Perm buffer III and mix on shaker for 30 sec. Incubate on ice for 30 minutes (in the dark). Wash with 50 uL of FACS buffer 2× (spin @2300 rpm×5 min after perm) followed by mixing on shaker for 30 sec. Resuspended in 20 ul of FACS buffer containing MX1 antibody ( ) (4812)-Alexa 647: Novus Biologicals #NBP2-43704AF647) 20 ul FACS bf+0.8 ul hlgG+0.04 ul MX-1. Spin 1000 rpm for 1 min, mix on shaker for 30se and the samples were incubated at RT in the dark for 45 minutes followed by washing 2×FACS buffer (spin @2300 rpm×5 min after perm). Resuspend 20 ul (35 uL total per well) of FACS buffer and cover with foil and place in 4° C. to read the following day. Plates were read on iQuePlus. The results were loaded into toolset and IC50 curves are generated in curve master. The y-axis 100% is set to 1 uM of resiquimod.

Structure (SMILES)	EC50 (human TLR7) [nM]	EC50 (CD69) [nM]
CCCCNc1nc(N)nc2cnn(Cc3cc(CN4CCN(C(=O)C5CCC5)CC4)ccc3OC)c12 [Compound 138, N7-butyl-1-({5-[(4-cyclo-butanecarbonylpiperazin-1-yl)methyl]-2-methoxy-phenyl}methyl)-1H-pyrazolo-[4,3-d]pyrimidine-5,7-diamine]	2070	≥ 1000
CCCCNc1nc(N)nc2cnn(Cc3cc(COC)ccc3OC)c12 [Compound 139, N7-butyl-1-{[2-methoxy-5-(methoxymethyl)phenyl]-methyl}-1H-pyrazolo[4,3-d]pyrimidine-5,7-diamine]	331	894
CCCCNc1nc(N)nc2cnn(Cc3cc(COC4COC4)ccc3OC)c12 [Compound 141, N7-butyl-1-({2-methoxy-5-[(oxetan-3-yloxy)me-thyl]phenyl}methyl)-1H-pyrazolo[4,3-d]pyrimidine-5,7-diamine]	498	831
CCCCNc1nc(N)nc2cnn(Cc3cc(COCCCO)ccc3OC)c12 [Compound 143, 3-[(3-{[5-amino-7-(butyl-amino)-1H-pyrazolo[4,3-d]pyrimidin-1-yl]methyl}-4-methoxyphenyl)-methoxy]propan-1-ol]	424	725
CCCCNc1nc(N)nc2cnn(Cc3cc(COCCC(C)(C)O)ccc3OC)c12 [Compound 144, 4-[(3-{[5-amino-7-(butyl-amino)-1H-pyrazolo[4,3-d]pyrimidin-1-yl]methyl}-4-methoxyphenyl)methoxy]-2-methylbutan-2-ol]	562	≥ 1000
CCCCNc1nc(N)nc2cnn(Cc3cc(C#N)ccc3OC)c12 [Compound 145, 3-{[5-amino-7-(butyl-amino)-1H-pyrazolo[4,3-d]pyrimidin-1-yl]methyl}-4-methoxybenzonitrile]	402	942
CCCCNc1nc(N)nc2cnn(Cc3cc(CN(C)C(=O)CCOC)ccc3OC)c12 [Compound 146, N-[(3-{[5-amino-7-(butyl-amino)-1H-pyrazolo[4,3-d]pyrimidin-1-yl]methyl}-4-methoxyphenyl)methyl]-3-methoxy-N-methylpropanamide]	499	≥ 1000
CCCCNc1nc(N)nc2cnn(Cc3cc(CN(C)C(=O)CC(C)(C)O)ccc3OC)c12 [Compound 148, N-[(3-{[5-amino-7-(butyl-amino)-1H-pyrazolo[4,3-d]pyrimidin-1-yl]methyl}-4-methoxyphenyl)methyl]-3-hydroxy-N,3-dimethyl-butanamide]	665	≥ 1000
COc1ccc(CN2CC(OC)C2)cc1Cn1ncc2nc(N)nc(NCC3CC4(CC4)C3)c21 [Compound 149, 1-({2-methoxy-5-[(3-methoxyazetidin-1-yl)methyl]-phenyl}methyl)-N7-({spiro-[2.3]hexan-5-yl}methyl)-1H-pyrazolo[4,3-d]pyrimidine-5,7-diamine]	271	525
COc1ccc(CNC2CCOCC2)cc1Cn1ncc2nc(N)nc(NCC3CC4(CC4)C3)c21 [Compound 150, 1-[(2-methoxy-5-{[(oxan-4-yl)amino]methyl}phenyl)-methyl]-N7-({spiro[2.3]-hexan-5-yl}methyl)-1H-pyrazolo[4,3-d]pyrimidine-5,7-diamine]	387	298
CCCCNc1nc(N)nc2cnn(Cc3cc(CN4CC(F)(F)C4)ccc3OC)c12 [Compound 151, N7-butyl-1-({5-[(3,3-difluoro-azetidin-1-yl)methyl]-2-methoxyphenyl}methyl)-1H-pyrazolo[4,3-d] pyrimidine-5,7-diamine]	768	≥ 1000
COc1ccc(C(=O)NC2CCN(C)CC2)cc1Cn1ncc2nc(N)nc(NCC3CC4(CC4)C3)c21 [Compound 152, 3-({5-amino-7-[({spiro-[2.3]hexan-5-yl}methyl)-amino]-1H-pyrazolo[4,3-d]pyrimidin-1-yl}methyl)-4-methoxy-N-(1-methylpiperidin-4-yl)benzamide]	467	159

Stronger by EC50 (human TLR7), values ahead:

EC50 (human TLR7) [nM]	EC50 (CD69) [nM]	Structure (SMILES)
201	62.5	CCCCNc1nc(N)nc2cnn(Cc3cc(CN4CCNCC4)ccc3OC)c12 [Compound 134, N7-butyl-1-({2-methoxy-5-[(piperazin-1-yl)methyl]-phenyl}methyl)-1H-pyrazolo[4,3-d]pyrimidine-5,7-diamine]
176	17	CCCCNc1nc(N)nc2cnn(Cc3cc(CN(C)CCN(C)C)ccc3OC)c12 [Compound 133, N7-butyl-1-{[5-({[2-(dimethylamino)ethyl](methyl)-amino}methyl)-2-methoxy-phenyl]methyl}-1H-pyrazolo [4,3-d]pyrimidine-5,7-diamine]
170	455	CCCCNc1nc(N)nc2cnn(Cc3cc(CN(C)C(=O)CCO)ccc3OC)c12 [Compound 147, N-[(3-{[5-amino-7-(butyl-amino)-1H-pyrazolo[4,3-d]pyrimidin-1-yl]methyl}-4-methoxyphenyl)methyl]-3-hydroxy-N-methylpropanamide]
114	28.1	CCCCNc1nc(N)nc2cnn(Cc3cc(CN4CC(N(C)C)C4)ccc3OC)c12 [Compound 137, N7-butyl-1-[(5-{[3-(dime-thylamino)azetidin-1-yl]-methyl}-2-methoxyphenyl)methyl]-1H-pyrazolo-[4,3-d]pyrimidine-5,7-diamine]
51.1	19.1	CCCCNc1nc(N)nc2cnn(Cc3cc(CNC(=O)CN(C)C)ccc3OC)c12 [Compound 136, N-[(3-{[5-amino-7-(butyl-amino)-1H-pyrazolo[4,3-d]pyrimidin-1-yl]methyl}-4-methoxyphenyl)methyl]-2-(dimethylamino)acetamide]
27.5	134	CCCCNc1nc(N)nc2cnn(Cc3cc(CO)ccc3OC)c12 [Compound 140, (3-((5-amino-7-(butylamino)-1H-pyrazolo[4,3-d]pyrimidin-1-yl)methyl)-4-methoxyphenyl)methanol]
